Source: US11559484B2, “Film formulations containing dexmedetomidine and methods of producing them” (BioXcel Therapeutics, Inc., priority 2018, dated 2023)
Structures can show the parent of a compound that is named as a salt.

Assays:
[1] = sublingual dose of 100 micrograms, human subjects; cited from earlier work
[2] = human, in vivo, iv
[3] = IV infusion from 0.2 mcg/kg/hr, schizophrenia patients

Time to reach Cmax [2]: 15 to 105 min
Structure (SMILES): Cc1cccc([C@H](C)c2cnc[nH]2)c1C [dexmedetomidine hydrochloride, (+) 4-(S)-[1-(2,3-dimethylphenyl)ethyl]-1H-imidazole]
hypotension post-administration [1]: Hypotension was observed | patients in the treatment arm with agitation reduced to a minimum (PEC score of 7 or below) (IV infusion, schizophrenia patients): 9 out of 10 | subjects with >=50% reduction in PEC score (IV route, schizophrenia): 7 of 10 | patients in the treatment arm achieving a RASS score of at least −1 [3]: 9 out of 10
